Reference: ChEMBL document CHEMBL1138696, “Evans Blue and other dyes as protein tyrosine phosphatase inhibitors” (Bioorg Med Chem Lett, 2004)

Assays:
[1] = Inhibition of human Leukocyte Antigen Related(LAR) protein tyrosine phosphatase D1
[2] = target: T1, Tyrosine-protein phosphatase non-receptor type 1 (Homo sapiens, UniProt P18031); test: Inhibition of human PTPase 1B
T1 sequence (P18031 whole entry): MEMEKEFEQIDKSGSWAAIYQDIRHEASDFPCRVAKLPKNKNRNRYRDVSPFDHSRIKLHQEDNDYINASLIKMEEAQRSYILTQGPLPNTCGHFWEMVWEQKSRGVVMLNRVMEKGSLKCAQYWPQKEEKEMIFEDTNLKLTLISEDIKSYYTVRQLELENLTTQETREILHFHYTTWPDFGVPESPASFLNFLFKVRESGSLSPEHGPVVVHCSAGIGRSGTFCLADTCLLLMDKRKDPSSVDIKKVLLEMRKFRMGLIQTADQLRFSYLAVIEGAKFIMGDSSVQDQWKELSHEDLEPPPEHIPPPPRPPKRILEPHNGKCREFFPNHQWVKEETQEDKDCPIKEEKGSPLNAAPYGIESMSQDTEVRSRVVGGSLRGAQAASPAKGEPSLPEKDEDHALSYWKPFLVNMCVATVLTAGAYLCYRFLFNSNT

[3] = target: T2, Tyrosine-protein phosphatase 1 (Saccharomyces cerevisiae S288c, UniProt P25044); test: Inhibitory activity against Saccharomyces cerevisiae Tyrosine phosphatase 1
T2 sequence (P25044 whole entry): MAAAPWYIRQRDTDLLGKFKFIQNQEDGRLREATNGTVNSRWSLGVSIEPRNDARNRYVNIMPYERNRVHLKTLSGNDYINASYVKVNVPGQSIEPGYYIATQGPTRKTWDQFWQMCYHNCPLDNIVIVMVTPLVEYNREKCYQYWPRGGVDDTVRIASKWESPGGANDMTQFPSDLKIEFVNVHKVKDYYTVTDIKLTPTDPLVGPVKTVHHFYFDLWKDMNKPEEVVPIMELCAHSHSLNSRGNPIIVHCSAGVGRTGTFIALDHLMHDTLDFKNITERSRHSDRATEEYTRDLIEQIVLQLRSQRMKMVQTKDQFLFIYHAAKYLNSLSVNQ

| SMILES | IC50 [1] | IC50 [2] | IC50 [3] |
| --- | --- | --- | --- |
| C/C(=C1/C=CC(=O)C(C(=O)O)=C1)c1ccc(O)c(C(=O)O)c1 | > 1000 µM | 5.2 µM | 30 µM |
| O=C(O)c1cc(N=Nc2ccc([N+](=O)[O-])cc2)ccc1O | > 1000 µM | 210 µM | 630 µM |
| Cc1[nH]n(-c2ccccc2)c(=O)c1N=Nc1c(O)cc(S(=O)(=O)O)c2ccccc12 | 660 µM | 150 µM | 140 µM |
| O=C1c2ccccc2C(=O)c2c1cc(S(=O)(=O)O)c(O)c2O [Alizarin Red S] | 82 µM | 40 µM | 48 µM |
| Cc1c(C(=O)O)c(O)cc2c1C(=O)c1c(O)c([C@H]3O[C@H](CO)[C@@H](O)[C@H](O)[C@H]3O)c(O)c(O)c1C2=O [CARMINE] | > 1000 µM | 26 µM | 15 µM |
| O=S(=O)(O)c1cc(O)c2c(O)cc(S(=O)(=O)O)cc2c1 [CHROMOTROPATE] | 570 µM | 9.7 µM | 6.5 µM |
| O=S(=O)(O)c1cc(S(=O)(=O)O)c2c(N=Nc3c(O)cc(S(=O)(=O)O)c4ccccc34)c(O)c(S(=O)(=O)O)cc2c1 [E126] |  | 460 µM | 110 µM |
| COc1cc(S(=O)(=O)O)c(C)cc1N=Nc1c(O)ccc2cc(S(=O)(=O)O)ccc12 [E129] | 90 µM | 33 µM | 410 µM |
| Cc1cc(-c2ccc(/N=N/c3ccc4c(S(=O)(=O)O)cc(S(=O)(=O)O)c(N)c4c3O)c(C)c2)ccc1/N=N/c1ccc2c(S(=O)(=O)O)cc(S(=O)(=O)O)c(N)c2c1O [EVANS BLUE] | 61 µM | 1.3 µM | 1.2 µM |
| O=C1OC2(c3ccc(O)cc3Oc3cc(O)ccc32)c2ccccc21 [FLUORESCEIN] | > 1000 µM | 600 µM | 850 µM |
| O=C(O)c1cc2ccccc2c(Cc2c(O)c(C(=O)O)cc3ccccc23)c1O [PAMOIC ACID] | > 1000 µM | 310 µM | > 1000 µM |
| CC(C)=CC[C@@H](O)C1=CC(=O)c2c(O)ccc(O)c2C1=O [SHIKONIN] | > 1000 µM | 25 µM |  |
| Cc1cc(-c2ccc(/N=N/c3c(S(=O)(=O)O)cc4cc(S(=O)(=O)O)cc(N)c4c3O)c(C)c2)ccc1/N=N/c1c(S(=O)(=O)O)cc2cc(S(=O)(=O)O)cc(N)c2c1O [TRYPAN BLUE] | 170 µM | 3.9 µM | 7.4 µM |
